Read-outs that look alike come from different tables or passages of the source.
Tests used:
[1] = log P by HPLC on reversed-phase column (EEC Directive 79/831 Annex V.A8); type: physicochemical; conditions: reversed-phase C18 HPLC column, 55° C.
Description: The log P values are measured according to EEC Directive 79/831 Annex V.A8 by HPLC (high-performance liquid chromatography) on a reversed-phase column (C 18). Temperature: 55° C. The LC-MS determination in the acidic range is effected at pH 2.7 using 0.1% aqueous formic acid and acetonitrile (contains 0.1% formic acid) as eluents; linear gradient from 10% acetonitrile to 95% acetonitrile. Called log P (HCOOH) in the table. LC-MS determination in the neutral range is effected at pH 7.8 with 0.001 molar aqueous ammonium hydrogencarbonate solution and acetonitrile as eluents; linear gradient from 10% acetonitrile to 95% acetonitrile. Called log P (neutral) in the table. Calibration is carried out using unbranched alkan-2-ones (having 3 to 16 carbon atoms) with known log P values (log P values determined on the basis of the retention times by linear interpolation between two successive alkanones).

Myzus persicae = Myzus persicae spray test; type: in vivo; conditions: foliar, Chinese cabbage leaf discs, after 5-6 days, read-out: efficacy
Description: (§1) To produce a suitable active ingredient preparation, 1 part by weight of active ingredient is dissolved with the stated parts by weight of solvent and made up with water containing an emulsifier concentration of 1000 ppm until the desired concentration is attained. To produce further test concentrations, the preparation is diluted with emulsifier-containing water. Discs of Chinese cabbage leaves (Brassica pekinensis) infested by all stages of the green peach aphid (Myzus persicae) are sprayed with an active ingredient preparation of the desired concentration. After 5-6 days, the efficacy in % is determined. 100% means that all the aphids have been killed; 0% means that no aphids have been killed.

Spodoptera frugiperda = Spodoptera frugiperda spray test; type: in vivo; conditions: foliar, 168 h, caterpillars on maize leaf discs, after 7 days, read-out: efficacy
Description: To produce a suitable active ingredient preparation, 1 part by weight of active ingredient is dissolved with the stated parts by weight of solvent and made up with water containing an emulsifier concentration of 1000 ppm until the desired concentration is attained. To produce further test concentrations, the preparation is diluted with emulsifier-containing water. Leaf discs of maize (Zea mays) are sprayed with an active ingredient preparation of the desired concentration and, after drying, populated with caterpillars of the armyworm (Spodoptera frugiperda). After 7 days, the efficacy in % is determined. 100% means that all the caterpillars have been killed; 0% means that no caterpillar has been killed.

Phaedon cochleariae = Phaedon cochleariae spray test; type: in vivo; conditions: foliar, 168 h, larvae on Chinese cabbage leaf discs, after 7 days, read-out: efficacy
Description: as §1, with “pekinensis)” for “pekinensis) infested by all stages of the green peach aphid (Myzus persicae)”, “concentration and, after drying, populated with larvae of the mustard beetle (Phaedon cochleariae).” for “concentration.”, “7” for “5-6”, “beetle larvae” for “aphids”

[2] = pH 7.8, aqueous ammonium hydrogencarbonate/acetonitrile, read-out: log P (neutral)
[3] = pH 2.7, 0.1% aqueous formic acid/acetonitrile, read-out: log P (acidic)

Row | SMILES | chromatographic logP [1, 2] | pest or weed control at 500 g/ha (Spodoptera frugiperda) | other results
1 | CCSc1cc2ccccc2nc1C(C)=O [1-[3-(Ethylsulphanyl)quinolin-2-yl]ethanone] | 3.31 | – | –
2 | CCSc1cc2ccccc2nc1C(=O)CBr [2-Bromo-1-[3-(ethylsulphanyl)quinolin-2-yl]ethanone] | – | – | chromatographic logP [1, 3]: 3.95
3 | CCSc1ccc2nc(-c3nc4cc(C(F)(F)F)ncc4n3C)c(SCC)cc2c1 [3,6-bis(ethylsulphanyl)-2-[3-methyl-6-(trifluoromethyl)imidazo[4,5-c]pyridin-2-yl]quinoline] | 4.35 | – | –
4 | CCSc1cc2ccccc2nc1C(=O)N(C)OC [3-(Ethylsulphanyl)-N-methoxy-N-methylquinoline-2-carboxamide] | 2.17 | – | –
5 | CCSc1cc2ccccc2nc1C(=O)O [3-(Ethylsulphanyl)quinoline-2-carboxylic acid] | 0.48 | – | –
6 | CCSc1cc2cc(Cl)ccc2nc1-c1nc2cc(C(F)(F)F)ncc2n1C [6-Chloro-3-ethylsulphanyl-2-[3-methyl-6-(trifluoromethyl)imidazo[4,5-c]pyridin-2-yl]quinoline] | 3.99 | – | –
7 | CCSc1cc2ccccc2nc1-c1nc2cc(C(F)(F)F)ncc2n1C [Example I-2, 3-Ethylsulphanyl-2-[3-methyl-6-(trifluoromethyl)imidazo[4,5-c]pyridin-2-yl]quinoline] | 3.3 | 100% | pest or weed control at 100 g/ha (Myzus persicae): 100%
8 | CCS(=O)(=O)c1nc2ccccc2nc1-c1nc2cc(C(F)(F)F)ncc2n1C [Example I-3, 2-Ethylsulphonyl-3-[3-methyl-6-(trifluoromethyl)imidazo[4,5-c]pyridin-2-yl]quinoxaline] | 2.45 | – | –
9 | CCS(=O)(=O)c1cc2ccccc2nc1-c1nc2cc(C(F)(F)F)cnc2n1C [Example I-5] | – | 100% | pest or weed control at 500 g/ha (Myzus persicae): 70%; pest or weed control at 500 g/ha (Phaedon cochleariae): 100%
10 | CCS(=O)(=O)c1ccc2nc(-c3nc4cc(C(F)(F)F)ncc4n3C)c(S(=O)(=O)CC)cc2c1 [Example I-6, 3,6-Bis(ethylsulphonyl)-2-[3-methyl-6-(trifluoromethyl)imidazo[4,5-c]pyridin-2-yl]quinoline] | 2.58 | 100% | pest or weed control at 500 g/ha (Myzus persicae): 90%; pest or weed control at 500 g/ha (Phaedon cochleariae): 83%
11 | CCS(=O)(=O)c1cc2cc(Cl)ccc2nc1-c1nc2cc(C(F)(F)F)ncc2n1C [Example I-7] | – | 100% | pest or weed control at 500 g/ha (Myzus persicae): 90%; pest or weed control at 500 g/ha (Phaedon cochleariae): 100%
12 | CCS(=O)(=O)c1cc2ccccc2nc1-c1nc2cc(C(F)(F)C(F)(F)F)ncc2n1C [Example I-10] | – | 100% | pest or weed control at 500 g/ha (Myzus persicae): 90%; pest or weed control at 500 g/ha (Phaedon cochleariae): 100%
13 | CCS(=O)(=O)c1cc2ccccc2nc1-c1nc2cc(C(F)(F)F)ccc2n1C [Example I-12] | – | 100% | pest or weed control at 500 g/ha (Myzus persicae): 90%; pest or weed control at 500 g/ha (Phaedon cochleariae): 100%
14 | CCS(=O)(=O)c1cc2ccccc2nc1-c1nc2cc3c(cc2[nH]1)OC(F)(F)O3 [Example I-15, 6-(3-Ethylsulphonyl-2-quinolyl)-2,2-difluoro-5H-[1,3]dioxolo[4,5-f]benzimidazole] | 3.37 | 100% | pest or weed control at 500 g/ha (Phaedon cochleariae): 100%
15 | CCS(=O)(=O)c1cc2ccccc2nc1-c1nc2cc(C(F)(F)F)ccc2o1 [Example I-17] | – | 100% | pest or weed control at 500 g/ha (Myzus persicae): 90%; pest or weed control at 500 g/ha (Phaedon cochleariae): 100%
16 | CCS(=O)(=O)c1cc2ccccc2nc1-c1nc2cc(C(F)(F)C(F)(F)F)cnc2n1C [Example I-20] | – | – | pest or weed control at 100 g/ha (Myzus persicae): 100%; pest or weed control at 100 g/ha (Spodoptera frugiperda; 100 g/ha): 100%; pest or weed control at 100 g/ha (Phaedon cochleariae; 100 g/ha): 100%
17 | CCS(=O)(=O)c1cc2ccccc2nc1-c1nc2cc(S(=O)(=O)C(F)(F)F)ccc2n1C [Example I-24, 3-Ethylsulphonyl-2-[1-methyl-5-(trifluoromethylsulphonyl)benzimidazol-2-yl]quinoline] | 3.42 | – | –
18 | CCSc1cc2ccccc2nc1-c1nc2cc(C(F)(F)F)cnc2n1C [Example I-25] | – | 100% | pest or weed control at 500 g/ha (Phaedon cochleariae): 100%
19 | CCSc1cc2ccccc2nc1-c1nc2cc(C(F)(F)F)cnc2o1 [Example I-27] | 4.36 | – | –

Row | SMILES | chromatographic logP [1, 2] | pest or weed control at 500 g/ha (Spodoptera frugiperda) | other results
20 | CC[S+]([O-])c1cc2ccccc2nc1-c1nc2cc(C(F)(F)F)cnc2o1 (stereo not drawn) [Example I-28] | 2.98 | – | –
21 | CC[S+]([O-])c1cc2ccccc2nc1-c1nc2cc(SC(F)(F)F)ccc2o1 (stereo not drawn) [Example I-30] | – | 100% | pest or weed control at 500 g/ha (Myzus persicae): 70%; pest or weed control at 500 g/ha (Phaedon cochleariae): 83%
22 | CCSc1cc2ccccc2nc1-c1nc2cc3c(cc2[nH]1)OC(F)(F)O3 [Example I-31, 6-(3-Ethylsulphanyl-2-quinolyl)-2,2-difluoro-5H-[1,3]dioxolo[4,5-f]benzimidazole] | 4.26 | – | –
23 | CCSc1cc2ccccc2nc1-c1nc2cc(C(F)(F)C(F)(F)F)ncc2n1C [Example I-35] | – | 100% | pest or weed control at 500 g/ha (Phaedon cochleariae): 83%
24 | CCS(=O)(=O)c1cnc2nc(-c3nc4cc(C(F)(F)F)ncc4n3C)c(S(=O)(=O)CC)cc2c1 [Example I-41, 3,6-Bis(ethylsulphonyl)-2-[3-methyl-6-(trifluoromethyl)-3H-imidazo[4,5-c]pyridin-2-yl]-1,8-naphthyridine] | 2.21 | – | pest or weed control at 500 g/ha (Myzus persicae): 90%
25 | CCSc1cc2ccccc2nc1-c1cn2cnc(C(F)(F)F)cc2n1 [Example I-46, 3-(Ethylsulphanyl)-2-[7-(trifluoromethyl)imidazo[1,2-c]pyrimidin-2-yl]quinoline] | 3.24 | – | –
26 | Cn1c(-c2nc3ccccc3cc2Cl)nc2cc(C(F)(F)F)ncc21 [Example V-1, 3-Chloro-2-[3-methyl-6-(trifluoromethyl)imidazo[4,5-c]pyridin-2-yl]quinoline] | 2.89 | – | –
27 | Cn1c(-c2nc3ccccc3nc2Cl)nc2cc(C(F)(F)F)ncc21 [Example V-2, 2-Chloro-3-[3-methyl-6-(trifluoromethyl)imidazo[4,5-c]pyridin-2-yl]quinoxaline] | 2.84 | – | –
28 | Cn1c(-c2nc3ncc(Cl)cc3cc2Cl)nc2cc(C(F)(F)F)ncc21 [Example V-3, 3,6-Dichloro-2-[3-methyl-6-(trifluoromethyl)-3H-imidazo[4,5-c]pyridin-2-yl]-1,8-naphthyridine] | 2.44 | – | –
29 | Cn1c(-c2nc3ccc(Cl)cc3cc2Cl)nc2cc(C(F)(F)F)ncc21 [Example V-4, 3,6-Dichloro-2-[3-methyl-6-(trifluoromethyl)imidazo[4,5-c]pyridin-2-yl]quinoline] | 3.53 | – | –
30 | O=C(O)c1nc2ncc(Cl)cc2cc1Cl [III-1, 3,6-Dichloro-1,8-naphthyridine-2-carboxylic acid] | – | – | chromatographic logP [1, 3]: 0.7
31 | CCSc1cc2ccccc2nc1C(=O)Nc1cc(C(F)(F)F)cnc1Cl [IV-1] | 5.71 | – | –
32 | CCS(=O)(=O)c1c(-c2nc3cc(C(F)(F)F)ncc3n2C)ncc2ccccc12 [I′-44] | – | 100% | pest or weed control at 500 g/ha (Myzus persicae): 90%; pest or weed control at 500 g/ha (Phaedon cochleariae): 83%
33 | COC(=O)c1ccc2cccnc2n1 [XXII-1, Methyl 1,8-naphthyridine-2-carboxylate] | 0.77 | – | –
34 | COC(=O)c1ccc2ncccc2n1 [XXII-2, Methyl 1,5-naphthyridine-2-carboxylate] | 0.92 | – | –
35 | O=C(O)c1ccc2cccnc2n1 [XXX-1, 1,8-Naphthyridine-2-carboxylic acid] | – | – | chromatographic logP [1, 3]: -0.12
36 | COC(=O)c1nc2ncc(Cl)cc2cc1Cl [XXXI-1, Methyl 3,6-dichloro-1,8-naphthyridine-2-carboxylate] | 1.93 | – | –
37 | COC(=O)c1nc2ccc(Cl)nc2cc1Cl [XXXI-2, Methyl 3,6-dichloro-1,5-naphthyridine-2-carboxylate] | 2.46 | – | –

Source: patent publication US10550116B2, “Fused bicyclic heterocycle derivatives as pesticides” (BAYER CROPSCIENCE AKTIENGESELLSCHAFT, priority 2015, dated 2020)
